This is an account of results in patent EP0329225A2, “Acetylenic esters” (MERCK & CO. INC., priority 1988, dated 1989).

For the test, the target named is T1, Acetoacetyl-coenzyme A thiolase (Rattus norvegicus, UniProt Q5XI22).
T1 construct: prepared from the livers of Sprague Dawley rats treated in the diet for one week with 0.075% lovastatin to induce the enzyme; from tissue; host or cells: liver of Sprague Dawley rats fed lovastatin
Nature of the test: Acetoacetyl-coenzyme A thiolase inhibition (coupled spectrophotometric assay, NADH oxidation at 340 nm). In kind it is biochemical, Sprague Dawley rats. How it is done:
Acetoacetyl-coenzyme A thiolase was prepared from the livers of Sprague Dawley rats treated in the diet for one week with 0.075% lovastatin to induce the enzyme. Acetoacetyl-coenzyme A thiolase was purified through the DEAE-cellulose step essentially as described by Mehrabian et al., J. Biol. Chem., 261, 16249-16255 (1986), but modified slightly by carrying out the 30-50% ammonium sulfate precipitation of the enzyme and a dialysis before the DEAE-cellulose step. The 0.06 M eluate described by Mahrabian et al. contained the acetoacetyl-coenzyme A thiolase. The isolate was concentrated by ammonium sulfate precipitation, dissolved in the buffer used for elution, and stored at -70°C.
Inhibition of acetoacetyl coenzyme A thiolase was measured by coupling the formation of acetoacetyl-coenzyme A to its subsequent reduction of β-hydroxybutyryl-coenzyme A dehydrogenase to β-hydroxybutyryl-coenzyme A and monitoring the resultant oxidation of NADH with a spectrophotometer set at 340 nm. Mixtures of 0.016 units of β-hydroxybutyryl-coenzyme A dehydrogenase, 16.2 µg of acetoacetyl coenzyme A thiolase, and test quantities of the test compounds dissolved in dimethyl sulfoxide and water to bring to final volume were incubated with 71.4 mM Tris-HCl (pH 7.5). 0.71 mM EDTA, 10.7 mM magnesium chloride, 0.53 mM dithiothreitol, 0.21 mM NADH (total volume of 0.140 ml) until a stable base line was obtained. Reaction was initiated by addition of 10 µl of acetoacetyl-coenzyme A, giving a concentration of 2.85 mM. Reaction was measured at room temperature for a time period necessary to produce a measurable reaction rate. An IC₅₀, the concentration that inhibits 50% of the acetoacetyl-coenzyme A thiolase activity, was determined for each test compound. The IC₅₀'s for representative compounds of this invention are listed in Table I. The IC₅₀ of 5-(1-hydroxy-2,4,6-heptatriynyl)-2-oxo-1,3-dioxolane-4-heptanoic acid has been reported as 1 x 10⁻⁸ M. See U.S. Patent Application Serial No. 07/053,973, filed May 26, 1987.

The mark [1] stands for this setting: enzyme from livers of lovastatin-treated rats, room temperature, pH 7.5, read-out: IC₅₀.

Where two headings read alike, the source gives them in different places. Bounds are passed on as bounds.

T1 sequence (Q5XI22 whole entry): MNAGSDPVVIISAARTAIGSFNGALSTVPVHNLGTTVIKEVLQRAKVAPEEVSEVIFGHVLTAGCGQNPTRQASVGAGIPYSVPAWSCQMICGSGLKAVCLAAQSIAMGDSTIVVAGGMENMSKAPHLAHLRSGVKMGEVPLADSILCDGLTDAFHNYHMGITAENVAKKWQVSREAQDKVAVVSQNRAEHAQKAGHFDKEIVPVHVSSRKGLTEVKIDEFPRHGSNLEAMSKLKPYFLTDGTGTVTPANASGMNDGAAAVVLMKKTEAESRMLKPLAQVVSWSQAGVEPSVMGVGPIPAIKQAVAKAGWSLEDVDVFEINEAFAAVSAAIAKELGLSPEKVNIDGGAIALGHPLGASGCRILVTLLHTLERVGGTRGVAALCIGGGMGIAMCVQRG

Regarding `C#CC#CC#C[C@@H](O)[C@@H](O)[C@@H](O)CCCCCCC(=O)O` [Ex. 1, 8(S),9(S),10(R)-Trihydroxy-11,13,15-hexadecatriynoic acid], the IC50 under setting [1] is 150 nM.
With `C#CC#CC#C[C@@H](O)[C@@H](O)[C@@H](O)CCCCCCC(=O)OC` [Ex. 2, 8(S),9(S),10(R)-Trihydroxy-11,13,15-hexadecatriynoic acid, methyl ester], the IC50 under setting [1] came to 38000 nM.
For the compound `COC(=O)CCCCCCCCC(O)C#CC#CC#C[Si](C)(C)C` (stereo not drawn) [Ex. 3, 10-Hydroxy-16-(trimethylsilyl)-11,13,15-hexadecatriynoic acid, methyl ester], the IC50 worked out at 17 nM.
`C#CC#CC#CC(O)CCCCCCCCC(=O)OC` (stereo not drawn) [Ex. 4, 10-Hydroxy-11,13,15-hexadecatriynoic acid, methyl ester]: under setting [1], the IC50 turned out to be 24 nM.
`COC(=O)CCCCCCCCC(O)C#CC#C[Si](C)(C)C` (stereo not drawn) [Ex. 5, 10-Hydroxy-14-(trimethylsilyl)-11,13-tetradecadiynoic acid, methyl ester]: the IC50 was > 62000 nM.
For `C#CC#CC(O)CCCCCCCCC(=O)OC` (stereo not drawn) [Ex. 6, 10-Hydroxy-11,13-tetradecadiynoic acid, methyl ester], the IC50 under setting [1] came to 26000 nM.
